According to US7863298B2, “Bridged ring structures as pharmaceutical agents” (Exelixis, Inc., priority 2003, dated 2011):

System: not listed separately
Assay: plasma calcium determination in athymic nude mice
Assay type: in vivo
Details: four doses, oral gavage every other day for 14 days, Day 14; FIG. 1
Protocol: A (three day) effective dose study was conducted on normal BALB/c mice in order to select a compound for the athymic nude mice study described below. Two-week old male Balb/c mice (Harlan) were weighed and sorted into groups of six according to Day-1 weight. Animals were given a standard diet and housed under normal lighting conditions. Compounds were administered in sesame oil vehicle with 4% ethanol. Ethanol was removed by evaporation by sparging with nitrogen prior to dosing orally by gavage via a 1 cc syringe with a 20 G disposable feeding needle (0.1 mL dose volume). Dosing was daily for three days, with animal weights measured on Days 0, 1 and 3. […] Animal weights were monitored on Day 3, 7, 10 and 14. […]
Calcium determination was carried out in a micronized plate format with heparinized plasma samples utilizing a colorimetric assay (Sigma 588-3). […] When present in an acidic medium, the calcium Arsenazo complex forms a purple color that was determined using a standard plate reader at […] against a standard curve.
FIG. 1 compares the effect of 1α,25-dihydroxyvitamin D3, against four different doses of one selected compound of the current invention, Compound B on plasma calcium levels in athymic nude mice at Day 14 measured 3 hours after final dose. Dosage is measured in μg/kg and plasma calcium levels are in mg/dl. […]
For `CCC(CC)(c1ccc(C#CC(O)C(C)(C)C)c(C)c1)c1ccc(OC[C@@H](O)CO)c(C)c1` (single isomer, unassigned) [compound B], the plasma calcium concentration was “without elevating plasma calcium concentration”.

Target: T1, VDR (Homo sapiens, UniProt P11473)
T1 construct: expressed in transfected cells; host or cells: CV-1 (African green monkey kidney cells), transient transfection
T1 sequence (P11473 92-425): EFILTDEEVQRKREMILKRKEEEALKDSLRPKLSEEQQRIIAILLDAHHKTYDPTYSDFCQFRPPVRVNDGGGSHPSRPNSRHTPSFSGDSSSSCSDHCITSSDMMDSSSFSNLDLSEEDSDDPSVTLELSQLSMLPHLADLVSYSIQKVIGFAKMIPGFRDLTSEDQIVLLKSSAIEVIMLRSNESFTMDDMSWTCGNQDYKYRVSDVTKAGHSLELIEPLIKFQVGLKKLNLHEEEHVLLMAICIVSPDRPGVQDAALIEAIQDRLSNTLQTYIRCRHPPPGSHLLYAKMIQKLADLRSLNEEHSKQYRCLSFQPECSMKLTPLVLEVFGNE
T1 sequence (Q15788 381-891 partner limits assumed): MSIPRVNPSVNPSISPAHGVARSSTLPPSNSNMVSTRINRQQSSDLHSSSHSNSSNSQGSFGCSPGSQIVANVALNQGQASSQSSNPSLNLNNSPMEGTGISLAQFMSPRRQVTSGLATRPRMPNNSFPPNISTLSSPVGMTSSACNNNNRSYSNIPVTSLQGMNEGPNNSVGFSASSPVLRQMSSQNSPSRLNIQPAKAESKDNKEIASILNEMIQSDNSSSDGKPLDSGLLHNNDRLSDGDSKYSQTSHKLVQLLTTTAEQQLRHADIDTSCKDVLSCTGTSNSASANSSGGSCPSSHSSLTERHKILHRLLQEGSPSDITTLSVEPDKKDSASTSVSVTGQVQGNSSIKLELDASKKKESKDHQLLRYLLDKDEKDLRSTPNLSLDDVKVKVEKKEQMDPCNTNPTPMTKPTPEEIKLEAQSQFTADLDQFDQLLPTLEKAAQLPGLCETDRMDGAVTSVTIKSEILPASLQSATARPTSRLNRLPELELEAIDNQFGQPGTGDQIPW
Assay: modified mammalian two-hybrid assay (VDR / SRC-1 interaction, luciferase reporter)
Assay type: cell-based
Details: CV-1 cells, exemplary compounds, read-out: agonist activity EC50
Protocol: Compound activity was determined using a modified mammalian two-hybrid assay, using the interaction of VDR to the co-factor SRC-1 to monitor receptor activation.
Following incubation with transfection reagents for 5 hours at 37° C., transfected cells were trypsinized, centrifuged, resuspended in media and added to the assay plates, (45 μl, 5000 cells per well). The assay plates containing both compounds and screening cells were incubated for approximately 20 hours at 37° C. in a tissue culture incubator.
After incubation of the transfected cells with compounds, media was aspirated and lysis buffer (1% Triton X 100, 10% Glycerol, 5 mM Dithiothreitol,1 mM EGTA, 25 mM Tricine pH 7.8) added.
With `CC(=O)N1CCC(c2ccc(OCC(=O)C(C)(C)C)c(C)c2)(c2ccc(OCC(=O)C(C)(C)C)c(C)c2)CC1` [1-(4-{1-Acetyl-4-[4-(3,3-dimethyl-2-oxo-butoxy)-3-methyl-phenyl]-piperidin-4-yl}-2-methyl-phenoxy)-3,3-dimethyl-butan-2-one] the EC50 was < 10 µM. In the case of `Cc1cc(C(c2ccccc2)(c2ccc(OCC(O)C(C)(C)C)c(C)c2)C(F)(F)F)ccc1OCC(O)CO` (stereo not drawn) [3-(2-Methyl-4-{2,2,2-trifluoro-1-[4-(2-hydroxy-3,3-dimethyl-butoxy)-3-methyl-phenyl]-1-phenyl-ethyl}-phenoxy)-propane-1,2-diol], the EC50 is reported as < 10 µM. For `Cc1cc(C(c2ccccc2)(c2ccc(OCC(O)C(C)(C)C)c(C)c2)C(F)(F)C(F)(F)F)ccc1OCC(O)CO` (stereo not drawn) [3-(2-Methyl-4-{2,2,3,3,3-pentafluoro-1-[4-(2-hydroxy-3,3-dimethyl-butoxy)-3-methyl-phenyl]-1-phenyl-propyl}-phenoxy)-propane-1,2-diol], the EC50 was < 10 µM. For `CCC(CC)(c1ccc(CCC(O)C(C)(C)C)cc1)c1ccc(OC[C@@H](O)CO)c(C)c1` (stereo partly drawn) [3-(4-{1-Ethyl-1-[4-(3-hydroxy-4,4-dimethylpentyl)-phenyl]-propyl}-2-methylphenoxy)-propane-1,2(S)-diol], the EC50 was < 10 µM. With `CCC(O)(CC)CCc1ccc(C(CC)(CC)c2ccc(OC[C@@H](O)CO)c(C)c2)cc1C` [3-(4-{1-ethyl-1-[4-(3-ethyl-3-hydroxypentyl)-3-methylphenyl]-propyl}-2-methyl-phenoxy)-propane-1,2(S)-diol] the EC50 was < 10 µM. In the case of `CCC(CC)(c1ccc(CCC(C)(C)O)c(C)c1)c1ccc(OC[C@@H](O)CO)c(C)c1` [3-(4-{1-ethyl-1-[4-(3-hydroxy-3-methylbutyl)-3-methylphenyl]-propyl}-2-methylphenoxy)-propane 1,2(S)-diol], the EC50 is reported as < 10 µM. In the case of `CCC(CC)(c1ccc(/C=C\C(O)C(C)(C)C)c(C)c1)c1ccc(OC[C@@H](O)CO)c(C)c1` (stereo partly drawn) [(Z)-3-(4-{1-ethyl-1-[4-(3-hydroxy-4,4-dimethylpent-1-enyl)-3-methylphenyl]-propyl}-2-methylphenoxy)-propane-1,2(S)-diol], the EC50 is reported as < 10 µM.

System: 24-hydroxylase
Assay: kidney 24-hydroxylase gene expression in athymic nude mice (RT-PCR)
Assay type: in vivo
Details: four doses, oral gavage every other day for 14 days; FIG. 2
Protocol: A (three day) effective dose study was conducted on normal BALB/c mice in order to select a compound for the athymic nude mice study described below. Two-week old male Balb/c mice (Harlan) were weighed and sorted into groups of six according to Day-1 weight. Animals were given a standard diet and housed under normal lighting conditions. Compounds were administered in sesame oil vehicle with 4% ethanol. Ethanol was removed by evaporation by sparging with nitrogen prior to dosing orally by gavage via a 1 cc syringe with a 20 G disposable feeding needle (0.1 mL dose volume). Dosing was daily for three days, with animal weights measured on Days 0, 1 and 3. […] Animal weights were monitored on Day 3, 7, 10 and 14. […] The RT reactions were performed in a DNA Engine thermal cycler (PTC-200, MJ Research) (50° C. 30 minutes; 72° C. 5 minutes) Real-Time Quantitative PCR was performed in a 384 well assay plate using the Prism 7900HT (ABI) using the entire product from the reverse transcription reaction above (5 uL). […] Results were analyzed using the data analysis and software packet (SDS) provided with the instrumentation. FIG. 1 compares the effect of 1α,25-dihydroxyvitamin D3, against four different doses of one selected compound of the current invention, Compound B on plasma calcium levels in athymic nude mice at Day 14 measured 3 hours after final dose. […]
For `CCC(CC)(c1ccc(C#CC(O)C(C)(C)C)c(C)c1)c1ccc(OC[C@@H](O)CO)c(C)c1` (single isomer, unassigned) [compound B], the “RNA expression of kidney 24-hydroxylase (relative to cyclophilin)” value was “dose responsive increase”.
